The test system of data set [1] is Swiss albino mice. Kind of data set: Formalin-induced hyperalgesia. The following applies: for number of flinching in the inflammatory phase compared to control group: 10 mg kg^–1 i.p.; for inhibition in vivo at 10 mg/kg: Mus musculus, ip, read-out: % inhibition of algesia (analgesic effect), 10 mg kg^–1 i.p. 30 min before formalin, Swiss albino mice. The class given is in vivo.

Another data set in a line: Solubility observations. The class given is physicochemical. The following applies: enzyme immunoassay medium, in words.
Data set [2] concerns Swiss albino mice. Nature of the data set: Carrageenan-induced paw inflammation. To be noted: for paw thickness compared to untreated control group: carrageenan, in words. The class given is in vivo.
Data set [3] deals with Swiss albino mice. Kind of data set: Acute oral toxicity, 14 days. The class given is in vivo.
For another data set, the target named is COX-1 (Homo sapiens, UniProt P23219). Kind of data set: Human whole blood COX-1 assay: calcium ionophore. The class given is cell-based. To be noted: for effect on ionophore-stimulated TXB2 production: 1 μM, in words; for TXB2, +calcium ionophore: compound final concn 1 μM, control 2.00.
The target of data set [4] is T1, COX-2 (Homo sapiens, UniProt P35354).
T1 sequence (P35354 18-604): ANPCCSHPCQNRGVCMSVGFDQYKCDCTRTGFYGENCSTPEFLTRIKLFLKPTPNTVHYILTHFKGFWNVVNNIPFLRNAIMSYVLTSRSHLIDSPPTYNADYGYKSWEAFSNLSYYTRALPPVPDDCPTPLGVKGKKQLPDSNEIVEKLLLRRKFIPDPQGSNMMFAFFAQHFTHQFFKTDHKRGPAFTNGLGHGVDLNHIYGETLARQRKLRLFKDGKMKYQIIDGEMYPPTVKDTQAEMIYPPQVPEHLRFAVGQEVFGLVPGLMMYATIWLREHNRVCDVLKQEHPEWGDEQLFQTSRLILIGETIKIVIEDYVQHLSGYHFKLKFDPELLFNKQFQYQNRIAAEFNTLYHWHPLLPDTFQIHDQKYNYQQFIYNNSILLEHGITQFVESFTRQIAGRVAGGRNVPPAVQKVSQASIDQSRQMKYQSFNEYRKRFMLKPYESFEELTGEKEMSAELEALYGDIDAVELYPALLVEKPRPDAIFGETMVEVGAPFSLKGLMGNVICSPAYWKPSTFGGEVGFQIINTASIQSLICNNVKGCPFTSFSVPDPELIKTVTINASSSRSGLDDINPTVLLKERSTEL
Kind of data set: Isothermal titration calorimetry with COX-2. To be noted: phosphate buffer pH 7.4. The class given is binding. (In general: Isothermal titration calorimetry measures the heat released or taken up as one component is titrated into another.)

Data set [5] deals with T1, COX-2. Nature of the data set: Human whole blood COX-2 assay: LPS-stimulated PGE2 production. The following applies: for effect on PGE2 production in LPS-stimulated blood: 1 μM, in words; for PGE2, +LPS: compound final concn 1 μM, control 1.98. The class given is cell-based.
Data set [6] can be described thus: In vivo pharmacokinetic study. The arrangement: species or system rat.
Where [7] appears, read: male wistar rat, 10 mg kg^–1 i.p.
[8] abbreviates: male, Wistar, rat, serum, ip, 10 mg/kg.

COX-1, sequence (P23219 24-599): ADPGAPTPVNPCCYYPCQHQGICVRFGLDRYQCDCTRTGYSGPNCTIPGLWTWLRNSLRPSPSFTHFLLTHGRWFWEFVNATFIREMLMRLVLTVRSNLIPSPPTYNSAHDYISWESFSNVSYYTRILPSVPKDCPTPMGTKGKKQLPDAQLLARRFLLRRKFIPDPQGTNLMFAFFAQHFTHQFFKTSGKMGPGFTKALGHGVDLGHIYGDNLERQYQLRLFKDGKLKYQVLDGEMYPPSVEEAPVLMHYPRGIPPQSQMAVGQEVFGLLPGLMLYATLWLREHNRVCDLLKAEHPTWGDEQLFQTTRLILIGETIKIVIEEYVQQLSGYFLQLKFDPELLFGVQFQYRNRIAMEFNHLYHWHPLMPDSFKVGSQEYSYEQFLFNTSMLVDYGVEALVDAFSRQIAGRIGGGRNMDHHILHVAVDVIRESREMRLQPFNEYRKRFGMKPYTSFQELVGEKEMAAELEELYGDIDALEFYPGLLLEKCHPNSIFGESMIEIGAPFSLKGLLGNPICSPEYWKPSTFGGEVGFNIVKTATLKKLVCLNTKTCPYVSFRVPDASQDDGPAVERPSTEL

As for `O=Cc1cn(-c2nc(N3CCOCC3)nc(N3CCOCC3)n2)c2ccccc12` [Compound 2, 1-(4,6-Dimorpholino-1,3,5-triazin-2-yl)-1H-indole-3-carbaldehyde], the “number of flinching in the inflammatory phase compared to control group” value (from here on “number of flinching … compared to control group”) in the data set with Swiss albino mice [1] (in words) is on record as “significantly decreased”. The inhibition in vivo at 10 mg/kg in the data set with Swiss albino mice [1] was 57.4%.
As for `O=C1/C(=C\c2cn(-c3nc(N4CCOCC4)nc(N4CCOCC4)n3)c3ccccc23)c2ccccc2N1c1c(Cl)cccc1Cl` [Compound 3, (Z)-1-(2,6-Dichlorophenyl)-3-((1-(4,6-dimorpholino-1,3,5-triazin-2-yl)1H-indolyl)methylene)indolin-2-one], the “number of flinching … compared to control group” value in the data set on Swiss albino mice [1] (in words) is listed as “significantly decreased”. The inhibition in vivo at 10 mg/kg in the data set with Swiss albino mice [1] is 55.6%.
The corresponding values for `O=C1Nc2ccccc2/C1=C/c1cn(-c2nc(N3CCOCC3)nc(N3CCOCC3)n2)c2ccccc12` [Compound 4, (Z)-3-((1-(4,6-Dimorpholino-1,3,5-triazin-2-yl)-1H-indol-3-yl)methylene)indolin-2-one] are “significantly decreased” and 61.3%.
For `CN1C(=O)C(=Cc2cn(-c3nc(N4CCOCC4)nc(N4CCOCC4)n3)c3ccccc23)C(=O)N(C)C1=O` [Compound 5, 1,3-Dimethyl-5-((1-(4,6-dimorpholino-1,3,5-triazin-2-yl)-1H-indol-3-yl)methylene)pyrimidine-2,4,6(1,3,5H)-trione], the “solubility in the assay medium” value in the data set “Solubility observations” is reported as “poor solubility”.
As to `CC1=NN(c2cccc(Cl)c2)C(=O)/C1=C\c1cn(-c2nc(N3CCOCC3)nc(N3CCOCC3)n2)c2ccccc12` [Compound 6, (4Z)-1-(3-Chlorophenyl)-3-methyl-4-((1-(4,6-dimorpholino-1,3,5-triazin-2-yl)-1H-indol-3-yl)methylene)-1H-pyrazol-5(4H)-one], in the data set on Swiss albino mice [2] (30 min after carrageenan), the “decrease in paw thickness” value was 18%. The “decrease in paw thickness” value in the data set with Swiss albino mice [2] (60 min after carrageenan) came out at 14%. For the same compound, the “paw thickness compared to untreated control group” value with Swiss albino mice [2] is listed as “decrease the paw thickness significantly”. For the same compound, the “mortality or gross behavioral impairment” value in the data set with Swiss albino mice [3] (50, 300 and 2000 mg kg^–1, after the 14th day) is reported as “no mortality or any gross behavioral impairment”. The compound also registered a maximum tolerable dose in the data set with Swiss albino mice [3] (Swiss albino mice) of over 2000 mg kg^–1. The “tissue histology (liver, kidney, myocardium)” value in the data set with Swiss albino mice [3] (after 14 days, H and E staining) is “no significant lesions except for some degree of congestion”. For the same compound, the toxicity entry with Swiss albino mice [3] (dose of 2000 mg kg^–1) is recorded as “did not exhibit toxicity”. Moreover, on COX-1, the “effect on ionophore-stimulated TXB2 production” value is “did not affect” and the “TXB2, +calcium ionophore” value came to 1.85 ng/mL. In addition, at COX-2 [4], the “ΔH COX-2 (ITC)” value was -9.685 kcal/mol. Further, on COX-2 [5], the “effect on PGE2 production in LPS-stimulated blood” value (from here on “effect on PGE2 production”) is listed as “significantly decreased” and the “PGE2, +LPS” value is given as 0.91 ng/mL. The “number of flinching … compared to control group” value in the data set on Swiss albino mice [1] (in words) was “significantly decreased”. The “analgesic effect on A23187 pretreatment” value with Swiss albino mice [1] (TXA2 stimulator A23187, in words) is “did not alter”. Further, the “analgesic effect on pretreatment with L-arginine or L-NAME” value with Swiss albino mice [1] (given 30 min before compound, in words) was “did not alter”. For the same compound, the “analgesic effect on pretreatment with substance P” value with Swiss albino mice [1] (substance P 30 min before compound, in words) is reported as “significantly attenuated”. Moreover, in data set [6] (setting [7]), the Cl/F_obs is given as 0.0008011 (mg)/(μg/mL)/min and the Vz/F_obs is recorded as 0.3796 (mg)/(μg/mL). Also, in data set [6] (setting [8]), the Cmax worked out at 58.5 µg/mL, the MRT inf is 8.16 h, the time of peak concentration (Tmax) is 3 h and the k el was 3.52e-05 s⁻¹. The compound further showed a half-life in data set [6] (male, Wistar, rat, serum, ip, 10 mg/kg, half-life, male wistar rat, 10 mg kg^–1 i.p.) of 5.5 h. Also, the half-life in data set [6] (male, Wistar, rat, serum, ip, 10 mg/kg, t1/2, male wistar rat, 10 mg kg^–1 i.p.) came out at 5.47 h.
Take `O=C1Nc2ccccc2/C1=C/c1cn(-c2nc(N3CCCCC3)nc(N3CCOCC3)n2)c2ccccc12` [Compound 10, (Z)-3-((1-(4-Morpholino-6-(piperidin-1-yl)-1,3,5-triazin-2-yl)-1H-indol-3-yl)methylene)indolin-2-one]: on COX-1, the “effect on ionophore-stimulated TXB2 production” value is reported as “did not affect” and the “TXB2, +calcium ionophore” value is recorded as 1.55 ng/mL. Besides, on COX-2 [5], the “effect on PGE2 production” value is on record as “significantly decreased” and the “PGE2, +LPS” value came to 1.02 ng/mL. The “number of flinching … compared to control group” value in the data set on Swiss albino mice [1] (in words) was “significantly decreased”. The inhibition in vivo at 10 mg/kg in the data set with Swiss albino mice [1] was determined as 54.9%.
Take `CC1=NN(c2cccc(Cl)c2)C(=O)/C1=C\c1cn(-c2nc(N3CCCCC3)nc(N3CCOCC3)n2)c2ccccc12` [Compound 12, (Z)-1-(3-Chlorophenyl)-3-methyl-4-((1-(4-morpholino-6-(piperidin-1-yl)-1,3,5-triazin-2-yl)-1H-indol-3-yl)methylene)-1H-pyrazol-5(4H)-one]: in the data set on Swiss albino mice [2], the “paw thickness compared to untreated control group” value is on record as “decrease the paw thickness significantly”. For the same compound, at COX-1, the “effect on ionophore-stimulated TXB2 production” value is on record as “did not affect” and the “TXB2, +calcium ionophore” value amounted to 1.75 ng/mL. For the same compound, on COX-2 [5], the “effect on PGE2 production” value was “significantly decreased” and the “PGE2, +LPS” value amounted to 0.95 ng/mL. Moreover, the “number of flinching … compared to control group” value in the data set with Swiss albino mice [1] (in words) is “significantly decreased”. Moreover, in the data set with Swiss albino mice [1], the inhibition in vivo at 10 mg/kg was 74.2%.
`CC1=NN(c2cccc(Cl)c2)C(=O)/C1=C\c1cn(-c2nc(N3CCCC3)nc(N3CCOCC3)n2)c2ccccc12` [Compound 17, (Z)-1-(3-Chlorophenyl)-3-methyl-4-((1-(4-morpholino-6-(pyrrolidin-1-yl)-1,3,5-triazin-2-yl)-1H-indol-3-yl)methylene)-1H-pyrazol-5(4H)-one]: on COX-1, the “effect on ionophore-stimulated TXB2 production” value is reported as “did not affect” and the “TXB2, +calcium ionophore” value was 1.70 ng/mL. Moreover, at COX-2 [5], the “effect on PGE2 production” value is reported as “significantly decreased” and the “PGE2, +LPS” value worked out at 1.00 ng/mL. The “number of flinching … compared to control group” value with Swiss albino mice [1] (in words) is listed as “significantly decreased”.
For `CC1=NN(c2cccc(Cl)c2)C(=O)/C1=C\c1cn(-c2nc(Cl)nc(N3CCOCC3)n2)c2ccccc12` [Compound 18, (Z)-4-((1-(4-Chloro-6-morpholino-1,3,5-triazin-2-yl)-1H-indol-3-yl)methylene)-1-(3-chlorophenyl)-3-methyl-1H-pyrazol-5(4H)-one], the “number of flinching … compared to control group” value with Swiss albino mice [1] (in words) was “significantly decreased”. Moreover, the inhibition in vivo at 10 mg/kg in the data set with Swiss albino mice [1] was determined as 59%.
`CC1=NN(c2cccc(Cl)c2)C(=O)/C1=C\c1cn(-c2nc(N3CCCCC3)nc(N3CCCCC3)n2)c2ccccc12` [Compound 22, (Z)-1-(3-Chlorophenyl)-4-((1-(4,6-di(piperidin-1-yl)-1,3,5-triazin-2-yl)-1H-indol-3-yl)methylene)-3-methyl-1H-pyrazol-5(4H)-one]: the “number of flinching … compared to control group” value with Swiss albino mice [1] (in words) is listed as “significantly decreased”. In addition, in the data set with Swiss albino mice [1], the inhibition in vivo at 10 mg/kg stood at 61.9%.
For the compound `O=C(O)Cc1ccccc1Nc1c(Cl)cccc1Cl` [Diclofenac, reference compound], the “number of flinching … compared to control group” value in the data set with Swiss albino mice [1] (in words) is “significantly decreased”.
With `COc1ccc2c(c1)c(CC(=O)O)c(C)n2C(=O)c1ccc(Cl)cc1` [Indomethacin, reference compound], the “decrease in paw thickness” value is recorded as 30% with Swiss albino mice [2] (30 min after carrageenan) and 25% with Swiss albino mice [2] (60 min after carrageenan). The “paw thickness compared to untreated control group” value in the data set with Swiss albino mice [2] is on record as “decrease the paw thickness significantly”.

One may read the Cmax as the maximum level reached in the sampled fluid or tissue. The MRT inf is the average time that molecules of a dose stay in the body. By Tmax is commonly meant the time at which the peak concentration occurs. By half-life is commonly meant the time in which the quantity being followed falls by half. Low values mean rapid decline, high ones slow decline.
